Test results published in ChEMBL document CHEMBL1151930, “Physicochemical determinants of human renal clearance” (J Med Chem, 2009).

Assay: Total body clearance in human
Details: in vivo

Row | Structure (SMILES) | clearance [mL/min/kg]
1 | C[C@@H]1O[C@@H]1P(=O)(O)O [FOSFOMYCIN] | 2
2 | CN(C)[C@@H]1C(O)=C(C(N)=O)C(=O)[C@@]2(O)C(O)=C3C(=O)c4c(O)cccc4[C@@](C)(O)[C@H]3[C@H](O)[C@@H]12 [OXYTETRACYCLINE] | 2
3 | Cc1ccnc2c1NC(=O)c1cccnc1N2C1CC1 [NEVIRAPINE] | 0.3
4 | CN1C(=O)C(O)N=C(c2ccccc2Cl)c2cc(Cl)ccc21 (centres undefined) [LORMETAZEPAM] | 4
5 | Cc1cc(NC(=O)C2=C(O)c3ccccc3S(=O)(=O)N2C)no1 [ISOXICAM] | 0.07
6 | COCCCOc1ccnc(C[S+]([O-])c2nc3ccccc3[nH]2)c1C (centres undefined) [RABEPRAZOLE] | 4
7 | O=P1(N(CCCl)CCCl)NCCCO1 (centres undefined) [CYCLOPHOSPHAMIDE ANHYDROUS] | 1.1
8 | CCC1=C(C)CN(C(=O)NCCc2ccc(S(=O)(=O)NC(=O)N[C@H]3CC[C@H](C)CC3)cc2)C1=O [GLIMEPIRIDE] | 0.5

Assay: clinical
Details: human, in vivo

Row | Structure (SMILES) | CL renal [mL/min/kg]
9 | C[C@@H]1O[C@@H]1P(=O)(O)O [FOSFOMYCIN] | 2
10 | CN(C)[C@@H]1C(O)=C(C(N)=O)C(=O)[C@@]2(O)C(O)=C3C(=O)c4c(O)cccc4[C@@](C)(O)[C@H]3[C@H](O)[C@@H]12 [OXYTETRACYCLINE] | 1.4
11 | Cc1ccnc2c1NC(=O)c1cccnc1N2C1CC1 [NEVIRAPINE] | 0.01
12 | O=C(O)Cc1ccccc1Nc1c(Cl)cccc1Cl [DICLOFENAC] | 0.04
13 | CN(C)C(=O)Oc1ccc[n+](C)c1 [PYRIDOSTIGMINE] | 7.2
14 | CC1=C(C(=O)O)N2C(=O)[C@@H](NC(=O)[C@H](N)c3ccc(O)cc3)[C@H]2SC1 [CEFADROXIL] | 2.33
15 | CC(C(=O)O)c1ccc(C(=O)c2cccs2)cc1 (centres undefined) [SUPROFEN] | 0.04
16 | CN/C(=N/CCSCc1nc[nH]c1C)NC#N [CIMETIDINE] | 7.9
17 | O.O=P(O)(O)C(O)(Cn1ccnc1)P(=O)(O)O [ZOLEDRONIC ACID] | 0.79
18 | CCNCC(O)c1cccc(O)c1 (centres undefined) [ETILEFRINE] | 3.96
19 | CN[C@@H]1CCc2[nH]c3ccc(C(N)=O)cc3c2C1 [FROVATRIPTAN] | 1.04
20 | Nc1nc(O)c2ncn(COC(CO)CO)c2n1 [GANCICLOVIR] | 4.14
21 | CC[C@@]1(O)C(=O)OCc2c1cc1n(c2=O)Cc2cc3c(CN(C)C)c(O)ccc3nc2-1 [TOPOTECAN] | 5.2
22 | Nc1nc2c(ncn2CCC(CO)CO)c(=O)[nH]1 [PENCICLOVIR] | 6.7
23 | C[C@](N)(Cc1ccc(O)c(O)c1)C(=O)O [METHYLDOPA] | 2.1
24 | CC[C@H]1OC(=O)[C@H](C)C(=O)[C@H](C)[C@@H](O[C@@H]2O[C@H](C)C[C@H](N(C)C)[C@H]2O)[C@](C)(OC)C[C@@H](C)C(=O)[C@H](C)[C@H]2N(CCCCn3cnc(-c4cccnc4)c3)C(=O)O[C@]12C [TELITHROMYCIN] | 3.14
25 | C[C@@H](O)[C@H]1C(=O)N2C(C(=O)O)=C(S[C@@H]3CN[C@H](C(=O)N(C)C)C3)[C@H](C)[C@H]12 [MEROPENEM] | 2.73
26 | CCOc1cc(CC(=O)N[C@@H](CC(C)C)c2ccccc2N2CCCCC2)ccc1C(=O)O [REPAGLINIDE] | 0.12
27 | COc1ccc2cc1Oc1cc3c(cc1OC)CC[N+](C)(C)[C@H]3Cc1ccc(cc1)Oc1c(OC)c(OC)cc3c1[C@@H](C2)[N+](C)(C)CC3.[I-].[I-] [METOCURINE IODIDE] | 0.52
28 | COc1ccc2[nH]c([S+]([O-])Cc3ncc(C)c(OC)c3C)nc2c1 (centres undefined) [OMEPRAZOLE] | 0.08
29 | Oc1ccc2c3c1O[C@H]1[C@@H](O)CC[C@@]4(O)[C@@H](C2)N(CC2CCC2)CC[C@]314 [NALBUPHINE] | 0.95
30 | CC(=O)O[C@@]12CO[C@@H]1C[C@H](O)[C@@]1(C)C(=O)[C@H](O)C3=C(C)[C@@H](OC(=O)[C@H](O)[C@@H](NC(=O)OC(C)(C)C)c4ccccc4)C[C@@](O)([C@@H](OC(=O)c4ccccc4)[C@H]21)C3(C)C.O.O.O [DOCETAXEL] | 0.29
31 | C[C@@H](O)[C@H]1C(=O)N2C(C(=O)[O-])=C(SC3Cn4cnc[n+]4C3)[C@H](C)[C@H]12 (some centres undefined) [BIAPENEM] | 1.23
32 | CC(C)(O/N=C(\C(=O)N[C@@H]1C(=O)N2C(C(=O)[O-])=C(C[n+]3ccccc3)CS[C@H]12)c1csc(N)n1)C(=O)O [CEFTAZIDIME] | 2.13
33 | CC(C)(C)NC[C@H](O)COc1nsnc1N1CCOCC1 [TIMOLOL] | 1.4
34 | CC1(C)S[C@@H]2[C@H](NC(=O)C(c3ccccc3)S(=O)(=O)O)C(=O)N2[C@H]1C(=O)O (some centres undefined) [SULBENICILLIN] | 1.3

Row | Structure (SMILES) | CL renal [mL/min/kg]
35 | COc1cccc(C2(O)CCCCC2CN(C)C)c1 (centres undefined) [TRAMADOL] | 0.98
36 | CCN(C)C(=O)Oc1cccc([C@H](C)N(C)C)c1 [RIVASTIGMINE] | 0.12
37 | Cc1cccc(C)c1NC(=O)NCCCNC(C)C | 2.3
38 | Cn1c(=O)c2[nH]cnc2n(C)c1=O.O [THEOPHYLLINE] | 0.09
39 | O=C1CN=C(c2ccccn2)c2cc(Br)ccc2N1 [BROMAZEPAM] | 0.26
40 | CCCC(C)C1(CC)C(=O)NC(=S)NC1=O (centres undefined) [THIOPENTAL] | 0.08
41 | Nc1nc(Cl)nc2c1ncn2[C@H]1C[C@H](O)[C@@H](CO)O1 [CLADRIBINE] | 3.92
42 | C[C@@H]1C[C@H]2[C@@H]3CCC4=CC(=O)C=C[C@]4(C)[C@@]3(F)[C@@H](O)C[C@]2(C)[C@@]1(O)C(=O)CO [DEXAMETHASONE] | 0.09
43 | C[C@@H](CN1CC(=O)NC(=O)C1)N1CC(=O)NC(=O)C1 [DEXRAZOXANE] | 1.4
44 | CN1C2CCCC1CC(NC(=O)c1nn(C)c3ccccc13)C2 (centres undefined) [GRANISETRON] | 1
45 | C[C@H]1COc2c(N3CCN(C)CC3)c(F)cc3c(=O)c(C(=O)O)cn1c23.C[C@H]1COc2c(N3CCN(C)CC3)c(F)cc3c(=O)c(C(=O)O)cn1c23.O [LEVOFLOXACIN] | 1.41
46 | C[C@@H](O)[C@H]1C(=O)N2C(C(=O)O)=C(S[C@H]3C[C@@H](C(=O)N4CC[C@H](NC(=O)CNC(=N)N)C4)N(C)C3)[C@H](C)[C@H]12 [TOMOPENEM] | 1.14
47 | CCOc1ccc2ccccc2c1C(=O)N[C@@H]1C(=O)N2[C@@H]1SC(C)(C)[C@@H]2C(=O)O [NAFCILLIN] | 1.03
48 | CC(C)(C)NCC(O)c1cc(O)cc(O)c1 (centres undefined) [TERBUTALINE] | 2.2
49 | N[C@@H](Cc1ccc(O)c(O)c1)C(=O)O [LEVODOPA] | 0.23
50 | CN1CCC[C@H]1c1cccnc1 [NICOTINE] | 3
51 | CC(=O)Nc1nnc(S(N)(=O)=O)s1 [ACETAZOLAMIDE] | 0.64
52 | COCCc1ccc(OCC(O)CNC(C)C)cc1 (centres undefined) [METOPROLOL] | 0.65
53 | O=C1c2c(O)ccc(O)c2C(=O)c2c(NCCNCCO)ccc(NCCNCCO)c21 [MITOXANTRONE] | 0.5
54 | CO/N=C(\C(=O)N[C@@H]1C(=O)N2C(C(=O)O)=C(COC(N)=O)CS[C@H]12)c1ccco1 [CEFUROXIME] | 2.11
55 | CN(C)CCC=C1c2ccccc2COc2ccccc21 [DOXEPIN] | 0.12
56 | CC(CCc1ccccc1)NCC(O)c1ccc(O)c(C(N)=O)c1 (centres undefined) [LABETALOL] | 0.92
57 | CC1(C)S[C@@H]2[C@H](NC(=O)COc3ccccc3)C(=O)N2[C@H]1C(=O)O [PENICILLIN V] | 1.74
58 | NC12CC3CC(CC(C3)C1)C2 [AMANTADINE] | 4.8
59 | CN1CCN(c2c(F)cc3c(=O)c(C(=O)O)cn(CCF)c3c2F)CC1 [FLEROXACIN] | 1.49
60 | CNC(=C[N+](=O)[O-])NCCSCc1csc(CN(C)C)n1 [NIZATIDINE] | 7.35

Row | Structure (SMILES) | CL renal [mL/min/kg]
61 | Cc1onc(-c2ccccc2)c1C(=O)N[C@@H]1C(=O)N2[C@@H]1SC(C)(C)[C@@H]2C(=O)O [OXACILLIN] | 2.6
62 | CC(CC(c1ccccc1)c1ccccc1)NC(C)(C)C (centres undefined) [TERODILINE] | 0.14
63 | Sc1ncnc2nc[nH]c12 [MERCAPTOPURINE ANHYDROUS] | 0.68
64 | CC[C@H]1OC(=O)[C@H](C)[C@@H](O[C@H]2C[C@@](C)(OC)[C@@H](O)[C@H](C)O2)[C@H](C)[C@@H](O[C@@H]2O[C@H](C)C[C@H](N(C)C)[C@H]2O)[C@](C)(O)C[C@@H](C)C(=O)[C@H](C)[C@@H](O)[C@]1(C)O [ERYTHROMYCIN] | 0.34
65 | Nc1ccn([C@@H]2O[C@H](CO)[C@@H](O)C2(F)F)c(=O)n1 [GEMCITABINE] | 3.2
66 | CCC(CC)O[C@@H]1C=C(C(=O)O)C[C@H](N)[C@H]1NC(C)=O [OSELTAMIVIR CARBOXYLATE] | 4.46
67 | CCCCNc1cc(C(=O)O)cc(S(N)(=O)=O)c1Oc1ccccc1 [BUMETANIDE] | 0.85
68 | CN(C)CCC(c1ccc(Cl)cc1)c1ccccn1 (centres undefined) [CHLORPHENIRAMINE] | 0.43
69 | Nc1ccc(S(=O)(=O)c2ccc(N)cc2)cc1 [DAPSONE] | 0.05
70 | COc1ccc(C(CN(C)C)C2(O)CCCCC2)cc1 (centres undefined) [VENLAFAXINE] | 0.64
71 | CC(=O)O[C@H]1C(=O)[C@@]2(C)[C@H]([C@H](OC(=O)c3ccccc3)[C@]3(O)C[C@H](OC(=O)[C@H](O)[C@@H](NC(=O)c4ccccc4)c4ccccc4)C(C)=C1C3(C)C)[C@]1(OC(C)=O)CO[C@@H]1C[C@@H]2O [PACLITAXEL] | 0.64
72 | COc1ccc(C(=O)Nc2ccccc2CCC2CCCCN2C)cc1 (centres undefined) [ENCAINIDE] | 0.78
73 | NS(=O)(=O)c1cc(C(=O)O)cc(N2CCCC2)c1Oc1ccccc1 [PIRETANIDE] | 1.05
74 | Cc1cn([C@H]2C=C[C@@H](CO)O2)c(=O)[nH]c1=O [STAVUDINE] | 3.53
75 | CN(C)CCCC1(c2ccc(F)cc2)OCc2cc(C#N)ccc21 (centres undefined) [CITALOPRAM] | 0.45
76 | N#Cc1ccc(C(c2ccc(C#N)cc2)n2cncn2)cc1 [LETROZOLE] | 0.02
77 | CCOC(=O)C1=C(C)NC(C)=C(C(=O)OC)C1c1cccc([N+](=O)[O-])c1 (centres undefined) [NITRENDIPINE] | 0.25
78 | CO/N=C(\C(=O)N[C@@H]1C(=O)N2C(C(=O)O)=C(C)CS[C@H]12)c1csc(N)n1 | 1.5
79 | C[C@]12C=CC(=O)C=C1CC[C@@H]1[C@@H]2C(=O)C[C@@]2(C)[C@H]1CC[C@]2(O)C(=O)CO [PREDNISONE] | 0.05
80 | Cc1cn([C@H]2C[C@H](N=[N+]=[N-])[C@@H](CO)O2)c(=O)[nH]c1=O [ZIDOVUDINE] | 5.67
81 | CCOc1ccccc1OC(c1ccccc1)C1CNCCO1 (centres undefined) [REBOXETINE] | 0.04
82 | CC1(C)S[C@@H]2[C@H](NC(=O)[C@H](N)c3ccc(O)cc3)C(=O)N2[C@H]1C(=O)O [AMOXICILLIN] | 1.89
83 | Nc1ccc(S(=O)(=O)Nc2ncccn2)cc1 [SULFADIAZINE] | 0.34
84 | CC[C@]1(O)C[C@@H]2CN(CCc3c([nH]c4ccccc34)[C@@](C(=O)OC)(c3cc4c(cc3OC)N(C)[C@H]3[C@@](O)(C(=O)OC)[C@H](OC(C)=O)[C@]5(CC)C=CCN6CC[C@]43[C@@H]65)C2)C1 [VINBLASTINE] | 2.64
